Entries after “also recorded” stand apart in the source; their conditions may differ.
How the values were obtained:
RyR1 [1] = target: T1, RyR1 (Mus musculus, UniProt E9PZQ0, E4242G); experiment: Calcium transient measurements (Fluo-3) in cultured myotubes in response to RyR1 agonist; format: cell-based; details: 4-CmC 0.5 mM, Ryr1^m1Nisw/m1Nisw myotubes
T1 construct: produced substantial Ca^2+ release in both normal and Ryr1^m1Nisw/m1Nisw myotubes; endogenous in cells; host or cells: cultured myotubes from locomotor-normal mouse embryos
T1 sequence (E9PZQ0 whole entry E4242G): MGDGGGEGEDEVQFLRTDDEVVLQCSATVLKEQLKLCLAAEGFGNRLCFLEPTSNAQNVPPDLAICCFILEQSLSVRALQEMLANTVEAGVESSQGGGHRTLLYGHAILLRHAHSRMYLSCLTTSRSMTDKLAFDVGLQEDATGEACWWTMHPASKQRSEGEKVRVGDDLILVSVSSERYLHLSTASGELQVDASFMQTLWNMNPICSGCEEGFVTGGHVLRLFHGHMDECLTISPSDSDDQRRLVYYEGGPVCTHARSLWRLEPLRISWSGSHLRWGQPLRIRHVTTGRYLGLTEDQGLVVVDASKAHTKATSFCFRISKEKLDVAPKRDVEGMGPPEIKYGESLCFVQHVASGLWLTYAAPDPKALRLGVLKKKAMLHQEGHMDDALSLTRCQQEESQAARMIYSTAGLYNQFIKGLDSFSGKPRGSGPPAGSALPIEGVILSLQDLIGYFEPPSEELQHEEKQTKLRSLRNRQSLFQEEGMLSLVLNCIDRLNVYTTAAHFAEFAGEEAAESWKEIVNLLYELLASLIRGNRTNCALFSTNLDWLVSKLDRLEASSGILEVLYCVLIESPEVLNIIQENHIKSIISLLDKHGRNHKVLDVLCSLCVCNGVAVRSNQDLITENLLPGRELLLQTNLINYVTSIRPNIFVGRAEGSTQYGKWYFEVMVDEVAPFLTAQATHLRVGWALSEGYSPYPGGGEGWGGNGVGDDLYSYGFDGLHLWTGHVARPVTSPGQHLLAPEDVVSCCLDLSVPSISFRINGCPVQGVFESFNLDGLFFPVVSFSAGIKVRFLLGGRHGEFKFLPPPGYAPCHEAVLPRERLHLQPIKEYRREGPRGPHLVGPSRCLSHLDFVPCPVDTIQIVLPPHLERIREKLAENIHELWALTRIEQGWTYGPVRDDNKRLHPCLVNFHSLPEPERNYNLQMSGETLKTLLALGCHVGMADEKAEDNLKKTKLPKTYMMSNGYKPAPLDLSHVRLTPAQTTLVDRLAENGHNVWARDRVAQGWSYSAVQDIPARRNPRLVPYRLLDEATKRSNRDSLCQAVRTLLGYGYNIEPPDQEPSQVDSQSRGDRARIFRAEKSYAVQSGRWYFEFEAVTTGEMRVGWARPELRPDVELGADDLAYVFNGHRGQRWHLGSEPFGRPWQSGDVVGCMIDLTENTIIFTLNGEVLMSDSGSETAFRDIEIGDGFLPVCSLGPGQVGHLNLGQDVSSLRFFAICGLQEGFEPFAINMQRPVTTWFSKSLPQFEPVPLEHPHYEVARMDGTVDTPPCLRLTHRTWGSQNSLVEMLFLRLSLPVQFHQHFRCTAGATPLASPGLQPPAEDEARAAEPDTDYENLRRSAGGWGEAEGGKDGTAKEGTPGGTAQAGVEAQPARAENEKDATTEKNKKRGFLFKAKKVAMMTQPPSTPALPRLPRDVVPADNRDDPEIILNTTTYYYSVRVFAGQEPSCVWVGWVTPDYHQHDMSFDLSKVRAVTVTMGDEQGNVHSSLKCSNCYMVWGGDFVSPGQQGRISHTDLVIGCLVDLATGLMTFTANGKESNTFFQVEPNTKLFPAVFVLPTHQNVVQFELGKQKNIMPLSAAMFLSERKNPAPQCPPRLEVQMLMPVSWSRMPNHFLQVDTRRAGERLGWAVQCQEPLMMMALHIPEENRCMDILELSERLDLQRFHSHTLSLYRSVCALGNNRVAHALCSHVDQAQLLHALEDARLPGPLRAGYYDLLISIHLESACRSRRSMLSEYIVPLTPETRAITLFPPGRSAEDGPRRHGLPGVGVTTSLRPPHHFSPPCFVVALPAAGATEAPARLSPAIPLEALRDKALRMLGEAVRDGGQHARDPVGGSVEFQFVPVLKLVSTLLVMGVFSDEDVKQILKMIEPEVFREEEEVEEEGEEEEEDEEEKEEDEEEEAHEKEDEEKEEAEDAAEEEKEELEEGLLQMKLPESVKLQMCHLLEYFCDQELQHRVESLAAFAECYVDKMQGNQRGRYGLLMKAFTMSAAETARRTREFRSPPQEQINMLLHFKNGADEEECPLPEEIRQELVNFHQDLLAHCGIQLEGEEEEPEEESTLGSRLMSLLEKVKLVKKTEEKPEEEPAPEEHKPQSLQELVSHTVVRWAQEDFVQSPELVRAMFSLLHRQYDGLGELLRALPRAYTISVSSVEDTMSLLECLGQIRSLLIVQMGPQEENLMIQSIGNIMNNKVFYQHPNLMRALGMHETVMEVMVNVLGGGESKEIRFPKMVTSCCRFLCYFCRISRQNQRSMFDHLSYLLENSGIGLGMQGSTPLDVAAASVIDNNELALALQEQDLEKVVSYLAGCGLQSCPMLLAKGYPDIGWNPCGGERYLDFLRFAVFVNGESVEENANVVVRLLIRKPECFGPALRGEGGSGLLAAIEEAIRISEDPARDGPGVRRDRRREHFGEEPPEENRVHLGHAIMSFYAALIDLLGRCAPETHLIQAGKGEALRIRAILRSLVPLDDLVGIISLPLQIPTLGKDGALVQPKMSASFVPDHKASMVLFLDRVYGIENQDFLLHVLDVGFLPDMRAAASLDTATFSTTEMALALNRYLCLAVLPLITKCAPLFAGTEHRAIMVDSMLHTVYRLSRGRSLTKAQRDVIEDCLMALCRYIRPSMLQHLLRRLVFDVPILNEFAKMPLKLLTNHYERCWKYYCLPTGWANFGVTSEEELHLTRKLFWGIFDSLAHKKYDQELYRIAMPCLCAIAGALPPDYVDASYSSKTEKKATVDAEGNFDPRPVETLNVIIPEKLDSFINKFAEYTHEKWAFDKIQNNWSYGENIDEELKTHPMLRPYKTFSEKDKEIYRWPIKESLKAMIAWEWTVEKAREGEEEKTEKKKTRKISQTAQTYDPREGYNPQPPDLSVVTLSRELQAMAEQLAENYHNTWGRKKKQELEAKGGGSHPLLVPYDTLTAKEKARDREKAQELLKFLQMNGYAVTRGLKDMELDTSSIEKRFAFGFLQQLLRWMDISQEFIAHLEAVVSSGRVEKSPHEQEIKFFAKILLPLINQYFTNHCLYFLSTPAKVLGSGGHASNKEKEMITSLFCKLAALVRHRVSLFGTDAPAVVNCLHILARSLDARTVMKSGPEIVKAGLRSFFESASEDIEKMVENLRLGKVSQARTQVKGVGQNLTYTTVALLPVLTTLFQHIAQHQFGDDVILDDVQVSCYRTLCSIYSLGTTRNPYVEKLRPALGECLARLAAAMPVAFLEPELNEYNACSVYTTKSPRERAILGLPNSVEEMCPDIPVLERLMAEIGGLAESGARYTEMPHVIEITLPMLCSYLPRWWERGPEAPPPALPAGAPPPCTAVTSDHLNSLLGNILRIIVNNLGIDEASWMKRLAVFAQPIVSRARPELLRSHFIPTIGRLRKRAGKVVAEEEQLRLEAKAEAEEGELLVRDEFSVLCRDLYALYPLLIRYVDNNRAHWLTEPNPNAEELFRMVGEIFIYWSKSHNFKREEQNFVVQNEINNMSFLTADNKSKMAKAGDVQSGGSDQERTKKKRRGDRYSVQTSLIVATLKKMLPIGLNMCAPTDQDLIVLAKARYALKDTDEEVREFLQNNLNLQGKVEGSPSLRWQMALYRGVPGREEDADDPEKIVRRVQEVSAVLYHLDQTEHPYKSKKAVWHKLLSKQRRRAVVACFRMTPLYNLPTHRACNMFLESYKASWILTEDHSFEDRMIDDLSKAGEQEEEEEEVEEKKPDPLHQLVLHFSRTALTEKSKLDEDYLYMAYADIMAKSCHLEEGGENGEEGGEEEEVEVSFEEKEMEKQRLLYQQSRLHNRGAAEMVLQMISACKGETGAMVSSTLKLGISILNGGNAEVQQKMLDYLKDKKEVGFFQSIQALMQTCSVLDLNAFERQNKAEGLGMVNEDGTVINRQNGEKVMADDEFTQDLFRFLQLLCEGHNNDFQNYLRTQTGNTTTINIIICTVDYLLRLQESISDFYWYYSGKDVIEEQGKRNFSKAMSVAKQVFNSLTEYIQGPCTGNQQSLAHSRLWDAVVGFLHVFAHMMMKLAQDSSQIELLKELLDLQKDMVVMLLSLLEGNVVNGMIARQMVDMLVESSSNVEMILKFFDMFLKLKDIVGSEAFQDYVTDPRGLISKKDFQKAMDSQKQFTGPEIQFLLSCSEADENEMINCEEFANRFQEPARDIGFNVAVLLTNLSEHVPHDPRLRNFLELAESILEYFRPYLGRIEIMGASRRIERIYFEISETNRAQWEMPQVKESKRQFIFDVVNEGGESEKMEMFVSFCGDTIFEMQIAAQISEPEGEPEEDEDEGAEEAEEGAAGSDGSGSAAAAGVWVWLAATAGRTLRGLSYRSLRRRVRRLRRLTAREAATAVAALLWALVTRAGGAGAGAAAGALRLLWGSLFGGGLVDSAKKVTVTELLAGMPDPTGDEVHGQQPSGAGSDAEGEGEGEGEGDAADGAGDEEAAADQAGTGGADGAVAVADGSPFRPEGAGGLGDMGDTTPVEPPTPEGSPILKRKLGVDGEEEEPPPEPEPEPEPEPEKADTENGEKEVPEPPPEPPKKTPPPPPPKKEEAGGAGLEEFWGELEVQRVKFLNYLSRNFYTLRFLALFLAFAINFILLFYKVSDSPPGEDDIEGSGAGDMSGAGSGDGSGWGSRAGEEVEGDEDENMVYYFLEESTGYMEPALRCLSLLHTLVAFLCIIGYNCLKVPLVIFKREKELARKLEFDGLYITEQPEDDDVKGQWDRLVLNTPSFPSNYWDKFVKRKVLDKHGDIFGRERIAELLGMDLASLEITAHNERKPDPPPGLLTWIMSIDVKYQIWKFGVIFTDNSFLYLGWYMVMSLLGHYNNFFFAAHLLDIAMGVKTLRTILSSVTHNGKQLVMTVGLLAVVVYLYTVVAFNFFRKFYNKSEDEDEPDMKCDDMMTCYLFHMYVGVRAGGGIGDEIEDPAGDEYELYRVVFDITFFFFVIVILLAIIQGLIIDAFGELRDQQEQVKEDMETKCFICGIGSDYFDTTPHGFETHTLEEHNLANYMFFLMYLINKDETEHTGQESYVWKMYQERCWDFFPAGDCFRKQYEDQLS
From the text: (§1) RyR1 functions as a muscle isotype of ryanodine receptors that is mechanically activated by Dihydropyridine receptor (hereinafter “DHPR”) to release Ca^2+ from the sarcoplasmic reticulum (hereinafter SR), thus evoking excitation-contraction coupling (hereinafter E-C coupling). In some exemplary methods, whole-cell clamping in combination with a fluorescent Ca^2+ indicator, such as Fluo-3 AM, was used to study the E-C coupling function of RyR1^m1Nisw mutant protein in cultured myotubes. […] Addition of the RyR1 agonist, 4-chloro-m-cresol (4-CmC; 0.5 mM), produced substantial Ca^2+ release in both normal and Ryr1^m1Nisw/m1Nisw myotubes (peak ΔF/F of 1.4±0.1; n=5 vs. 1.2±0.1; n=3, respectively; p>0.05; FIG. 2d, e), compared to Ryr1^tm1Alle/tm1Alle null myotubes (ΔF/F 0.1±0.0; n=6; FIG. 2e). […] However, the rate of SR Ca^2+ release in response to 4-CmC was much slower in Ryr1^m1Nisw/m1Nisw versus normal myotubes (t1/2act=6.5±2.4 vs. 2.2±0.6 s, respectively; p<0.01; FIG. 2d). […] Under controlled physiological conditions, RyR1^m1Nisw/m1Nisw protein may be non-functional compared to wild type RyR1 in skeletal muscle.
(§2) FIG. 2a provides representative recordings of myoplasmic Ca^2+ transients elicited by 50-ms depolarizations from −50 mV to the indicated test potentials for locomotor normal myotubes (left; L. Normal) and Ryr1^m1Nisw/m1Nisw myotubes (right). […] FIG. 2c represents an exemplary histogram illustrating fractions of myotubes that contracted in response to a 100 V, 10 ms electrical stimulus for normal myotubes (black bar), Ryr1^m1Nisw/m1Nisw myotubes, and Ryr1^m1Nisw/m1Nisw myotubes transfected with YFP-tagged wild type RyR1 (RyR1-YFP, grey bar). The total number of myotubes tested is indicated above each bar. The defect of contraction observed in Ryr1^m1Nisw/m1Nisw myotubes (0%) was restored to 50-60% by expression of RyR1-YFP compared to the normal myotubes (90%). […] FIG. 2e represents an exemplary histogram of half-rise time of Ca^2+ transients in response to 4-CmC observed in normal (blackzbar), Ryr1^m1Nisw/m1Nisw (grey bar) and RyR1^tm1Alle/tm1Alle (white bar) myotubes. Error bars represent±SEM. An asterisk indicates a significant difference (p=0.006; t-test). The total number of myotubes tested is indicated above each bar.
(§3) Intracellular Ca^2+ was recorded with Fluo-3 (Invitrogen) at a final concentration of 200 μM that was injected by whole cell configuration, a waiting period of >5 min was used to allow the dye to diffuse into the cell interior. The total change in fluorescence (ΔF/F) was determined from the change in peak fluorescence from initial baseline during stimulation and F was the fluorescence immediately before the test pulse minus the measured average background (non Fluo-3) fluorescence before dye entry. For normal myotubes, average values of fluorescence change (ΔF) for each test potential (V) were fitted according to: (ΔF)=(ΔF)max/{1+exp[(VF−V)/kF]}, where (ΔF)max=1093 au, VF=−1.4 mV and kF=5.5 mV. Fluorescence emission was measured by fluorometer. Ryr1 cDNA was provided by Kurt Beam and Roger Bannister assisted in these experiments.

RyR1 [2] = target: T2, RyR1 (Mus musculus, UniProt E9PZQ0); experiment: as above; format: cell-based; details: 4-CmC 0.5 mM, normal myotubes
T2 construct: produced substantial Ca^2+ release in both normal and Ryr1^m1Nisw/m1Nisw myotubes; endogenous in cells; host or cells: cultured myotubes from locomotor-normal mouse embryos
T2 sequence (E9PZQ0 whole entry): as the sequence (E9PZQ0 whole entry E4242G) above, with G4242E counted along it
From the text: as §1, §2, §3

RyR1 [3] = experiment: as above; format: cell-based, mouse; details: 4-CmC; Ryr1^tm1Alle/tm1Alle null myotubes; n=6
From the text: as §1, §2, §3

[4] = test system: Ryr1^m1Nisw/+ vastus lateralis muscle; experiment: Muscle histology (H&E central nuclei, COX staining) of vastus lateralis; format: in vivo, mouse; details: after four weeks treatment
From the text: CCD is diagnosed and subclassified by histopathological analysis using stains such as cytochrome oxidase (COX) and nicotinamide adenine dinucleotide hydride-tetrazolium reductase (NADH-TR) which highlight mitochondria and ATP synthesis, and hematoxylin and eosin stain (H&E) to mark nuclei. In normal muscle, nuclei are located at the periphery of the myofiber and the mitochondria reside throughout the myofiber. Muscle biopsies of CCD patients show centrally located nuclei, as well as disorganized areas in the center of the myofiber called cores that lack mitochondria and are devoid of metabolic activity; these occur in some but not all muscles and are reflective of cellular damage.
Pathological examination is the hallmark diagnosis of CCD. In one exemplary method, the effects of diet on muscle histology were studied. Centrally located nuclei and decreased mitochondrial activity were detected in Ryr1^m1Nisw/+ vastus lateralis muscle compared to Ryr1^+/+ muscle in low potassium and control diets (FIGS. 5c-5k). […] In addition, the CCD phenotype was also rescued by 5-hydrodecanoic acid (5HA), which blocks ATP-sensitive K^+ channels (FIG. 4 and Table 2). […]

Ryr1^m1Nisw/+ mice [5] = experiment: Hanging wire task (upper body muscle strength); format: in vivo, mouse; details: four weeks of diet, Enalapril in water, or Glyburide 15 mg/kg/day oral gavage
Ryr1^m1Nisw/+ mice [6] = experiment: Grip strength test (vertical digital push-pull strain gauge); format: in vivo, mouse; details: 2 month old, four weeks of diet, Enalapril in water, or Glyburide 15 mg/kg/day oral gavage
[7] = test system: Ryr1^m1Nisw/m1Nisw E18.5 diaphragm muscle; experiment: EMG recordings / contractility of explanted E18.5 diaphragm muscle; format: cell-based, mouse
Protocol: (§4) In other methods, whether increasing the excitability in E18.5 Ryr1^m1Nisw/m1Nisw whole diaphragm muscle could force the DHPR-RyR1 complex to initiate contractility was examined. In one exemplary method, electromyography recordings (EMG) was performed to examine whether whole muscle in vitro was sensitive to potassium-dependent depolarization by adding potassium to the bath to depolarize the membrane. […] Potassium induced excitability can also be triggered by blocking inward rectifier potassium channels.
DHPR and RyR1 interact through orthograde and retrograde signaling, but the Ryr1^m1Nisw/m1Nisw mutation is not located within this interaction region. Orthograde signaling from DHPR opens the RyR1 channel in the SR, while retrograde signaling from RyR1 controls the gating of DHPR.
FIG. 2g represents an exemplary graph of contractility of E18.5 diaphragm muscle from Ryr1^+/+, Ryr1^m1Nisw/m1Nisw, or RyR1^tm1Alle/tm1Alle embryos. After equilibration, all samples were bathed first in 6 mM KCl, followed by wash out and then addition of 100 μm BaCl as indicated. […] FIG. 2h provides an exemplary graph of contractility of E18.5 diaphragm muscle from Ryr1^+/+, Ryr1^m1Nisw/m1Nisw and RyR1^tm1Alle/tm1Alle embryos in 6 mM potassium gluconate (n=4).
(§5) In myotubes, the application of ryanodine at levels that activate RyR increases ERK1/2 protein levels and c-Fos and c-Jun transcript levels. ERK1/2 phosphorylates the most abundant potassium transport protein, Na^+, K^+-ATPase, which, in turn, induces an increase in ion transport. Na^+, K^+-ATPase is essential for maintaining the equilibrium potential of Na^+ and K^+ at the membrane. In one exemplary method, western blot was performed to analyze certain protein levels in Ryr1^m1Nisw/m1Nisw and Ryr1^tm1Alle/tm1Alle embryonic muscle extracts with beta-tubulin served as a loading control. […] In another exemplary method, Phorbol-12-myristate-13-acetate (PMA 50 nM), an activator of ERK1/2 phosphorylation, was applied to the bath of in vitro Ryr1^m1Nisw/m1Nisw diaphragm preparation to increase the phosphorylation of Na^+, K^+-ATPase.
(§6) In certain exemplary methods, restoration of membrane potential and muscle contractions by pharmacological stimulation was tested. First, effect of stimulation of AMPK activity on restoring the resting membrane potential of the mutant diaphragm muscle was determined. An AMPK activator, e.g. 5-aminoimidazole-4-carboxamide-1-β-d-ribofuranoside (AICAR, 500 μM), was bath applied to explanted Ryr1^m1Nisw/m1Nisw E18.5 diaphragm muscles. […] Next, other pharmacological stimuli were examined. […] Glibenclamide (2 μM) and 5-hydrodecanoic acid (5HA, 200 μM) selectively bind to SUR1 and SUR2 to block ATP-sensitive K^+ channels.

soleus muscle = experiment: Steady-state membrane potential (VREST) of two month old soleus muscle at varied extracellular potassium; format: cell-based, mouse; details: bumetanide 75 μM, BaCl2 50 μM
[8] = test system: Ryr1^m1Nisw/m1Nisw diaphragm muscle; experiment: Sharp electrode recordings of resting membrane potential of diaphragm muscle; format: cell-based, mouse; details: Glibenclamide 2 μM; PMA 50 nM; AICAR 500 μM
Protocol: Therefore, in some exemplary methods, whether voltage dependent orthograde signaling through the DHPR-RyR1 complex could be initiated through changes in membrane potential was first assessed.
as §4, §5, §6

Structure (SMILES)	t1/2act (rate of SR Ca^2+ release) (RyR1 [1]) [s]	peak ΔF/F (Ca^2+ release) (RyR1 [1]; n=3)	t1/2act (rate of SR Ca^2+ release) (RyR1 [2]) [s]	peak ΔF/F (Ca^2+ release) (RyR1 [2]; n=5)	ΔF/F (Ca^2+ release) (RyR1 [3])	centrally located nuclei / muscle histology (H&E) [4]	muscle strength in hanging task (in words) (Ryr1^m1Nisw/+ mice [5])	grip strength (in words) (Ryr1^m1Nisw/+ mice [6])	centrally located nuclei / muscle histology (H&E) ([4]; listed as Glyburide)	Minutes to Contraction (Stand. Dev) ([7]; EMG recordings, electrically stimulated, PMA 50 nM, AICAR 500 μM, Glibenclamide 2 μM, 5HA 200 μM)	bath application time after which contractions were elicited ([7]; Glibenclamide 2 μM, 5HA 200 μM, n=6 for each) [h]	explants showing contractions ([7]; after 1 hour bath application, n=6 for each) [%]	VREST phase (in words) (soleus muscle; RyR1^m1Nisw/+ soleus muscle, Glibenclamide 2 μM, or chronic 5.2% potassium diet)	VREST phase (in words) (soleus muscle; wild type muscle, low extracellular potassium / Tetanus, Glibenclamide 2 μM)	resting membrane potential (in words) [8]
Cc1cc(O)ccc1Cl [4-CmC, 4-chloro-m-cresol]	6.5 ± 2.4	1.2±0.1	2.2 ± 0.6	1.4±0.1	0.1±0.0	–	–	–	–	–	–	–	–	–	–
CCOC(=O)[C@H](CCc1ccccc1)N[C@@H](C)C(=O)N1CCC[C@H]1C(=O)O [Enalapril]	–	–	–	–	–	mild improvement in muscle histology	increased grip strength and muscle strength; also recorded: partial rescue of muscle strength	increased grip strength	–	–	–	–	–	–	–
COc1ccc(Cl)cc1C(=O)NCCc1ccc(S(=O)(=O)NC(=O)NC2CCCCC2)cc1 [Glibenclamide]	–	–	–	–	–	–	increased grip strength and muscle strength; also recorded: Increased grip and hanging strength	Increased grip and hanging strength	lack of centrally-located nuclei; also recorded: rescue the clinical and pathological manifestations of CCD; also recorded: significant reduction in the number of internal nuclei	67 (34) Minutes	2	50	rescued the phase 2 VREST to phase 1	protected against phase 2 shifting from phase 1	normalized the resting membrane potential

Reference: patent US20130273181A1, “METHODS AND COMPOSITIONS FOR DIAGNOSING AND TREATING MUSCLE MYOPATHY DISORDERS” (The Regents of the University of Colorado, a body Corporate, priority 2012, published 2013)
